According to patent US8420644B2, “Pharmaceutical composition intended for the prevention or for the treatment of cerebral oedemas” (Biocodex, priority 2005, dated 2013):
Where two headings read alike, the source gives them in different places.

Legend:
[1] = tested on: cerebral edema induced triethyltin (TET) chloride; conditions: administered during the intoxication, measured after 5 days (Linee et al., 1984); cited from earlier work
[2] = assay type: in vivo, rat
[3] = tested on: ambulatory activity disrupted by triethyltin (TET); conditions: for Ambulatory activities: no TET
[4] = tested on: cerebral oedema induced by triethyltin (TET); conditions: rat, in vivo
[5] = moclobemide 2×100 mg/kg/day + TET
[6] = moclobemide 2 × 100 mg/kg/day + TET 3 mg/kg/day, day 4
[7] = moclobemide 2 × 50 mg/kg/day + TET 3 mg/kg/day, day 4
[8] = moclobemide 2 × 50 mg/kg/day + TET 3 mg/kg/day, day −3, before any treatment
[9] = moclobemide 2 × 50 mg/kg/day, TET 0, day 4
[10] = moclobemide 2 × 50 mg/kg/day, TET 0, day −3, before any treatment
[11] = moclobemide 2 × 100 mg/kg/day + TET 3 mg/kg/day, day −3, before any treatment

Compound: CC[C@]12CCCN3CCc4c(n(c5ccccc45)[C@@](O)(C(=O)OC)C1)[C@@H]32 [vincamine]
- Activity in the preventive protocol of intoxication with tin [1]: active

Compound: (−)eburnamonine
- Activity in the preventive protocol of intoxication with tin [1]: active

Compound: dihydroergotoxin
- Activity in the preventive protocol of intoxication with tin [1]: active

Compound: moclobemide
- Body weight (grammes ± esm) ([2]; moclobemide 2 × 50 mg/kg/day + TET 3 mg/kg/day, day 0): 245 ± 3 grammes
- Body weight (grammes ± esm) ([2]; moclobemide 2 × 50 mg/kg/day + TET 3 mg/kg/day, day 1): 246 ± 3 grammes
- Body weight (grammes ± esm) ([2]; moclobemide 2 × 50 mg/kg/day + TET 3 mg/kg/day, day 2): 249 ± 3 grammes
- Body weight (grammes ± esm) ([2]; moclobemide 2 × 50 mg/kg/day + TET 3 mg/kg/day, day 3): 253 ± 4 grammes
- Body weight (grammes ± esm) ([2]; moclobemide 2 × 50 mg/kg/day + TET 3 mg/kg/day, day −3): 216 ± 3 grammes
- Drop in weight between day 3 and day 4 induced by the TET [2, 5]: prevents the drop in weight induced by the TET
- Body weight (grammes ± esm) ([2]; moclobemide 2 × 100 mg/kg/day + TET 3 mg/kg/day, day 0): 243 ± 4 grammes
- Body weight (grammes ± esm) ([2]; moclobemide 2 × 100 mg/kg/day + TET 3 mg/kg/day, day 2): 244 ± 4 grammes
- Body weight (grammes ± esm) ([2]; moclobemide 2 × 100 mg/kg/day + TET 3 mg/kg/day, day 3): 244 ± 4 grammes
- Body weight (grammes ± esm) [2, 6]: 241 ± 5 grammes
- Body weight (grammes ± esm) ([2]; moclobemide 2 × 100 mg/kg/day + TET 3 mg/kg/day, day −3): 203 ± 5 grammes
- Effect of TET on the ambulatory activities ([3]; moclobemide 2×50 mg/kg/day + TET): does not suppress the effect of TET
- Horizontal ambulatory activity (means ± esm) [3, 7]: 474 ± 70 arbitrary unit
- Total ambulatory activity (means ± esm) [3, 7]: 844 ± 88 arbitrary unit
- Horizontal ambulatory activity (means ± esm) [3, 8]: 2319 ± 248 arbitrary unit
- Total ambulatory activity (means ± esm) [3, 8]: 3001 ± 314 arbitrary unit
- Vertical ambulatory activity (means ± esm) [3, 8]: 279 ± 37 arbitrary unit
- Ambulatory activities ([3]; moclobemide 2×50 mg/kg/day for 5 days): does not lead to any significant effect on the ambulatory activities
- Horizontal ambulatory activity (means ± esm) [3, 9]: 1483 ± 163 arbitrary unit
- Total ambulatory activity (means ± esm) [3, 9]: 2000 ± 224 arbitrary unit
- Horizontal ambulatory activity (means ± esm) [3, 10]: 2754 ± 415 arbitrary unit
- Total ambulatory activity (means ± esm) [3, 10]: 3840 ± 323 arbitrary unit
- Effect of TET on the ambulatory activities [3, 5]: does not suppress the effect of TET
- Horizontal ambulatory activity (means ± esm) [3, 6]: 497 ± 139 arbitrary unit
- Horizontal ambulatory activity (means ± esm) [3, 11]: 2549 ± 221 arbitrary unit
- Total ambulatory activity (means ± esm) [3, 11]: 3332 ± 235 arbitrary unit
- Vertical ambulatory activity (means ± esm) [3, 11]: 279 ± 27 arbitrary unit
- Ambulatory activities ([3]; moclobemide 2×100 mg/kg/day, day 4): significantly decreases the ambulatory activities at day 4
- Variation in percentage ([4]; 50 mg/kg/day): −0.01%
- Variation in percentage ([4]; 100 mg/kg/day): −0.14%
